Experimental data from patent US20210253710A1, “DIAGNOSTIC AND THERAPEUTIC METHODS FOR KIDNEY CANCER” (Genentech, Inc., priority 2018, published 2021).
Where two headings read alike, the source gives them in different places. Marks after values point to notes of the source that are not given here.

Key:
[1] = test system: patients with metastatic RCC with sarcomatoid histology; assay: IMmotion151 subgroup analysis: efficacy in patients whose tumors had sarcomatoid histology; format: in vivo, human; conditions: for Median OS: clinical cutoff Aug. 13, 2018; for Confirmed INV-assessed ORR / Median INV-assessed PFS: clinical cutoff Sep. 29, 2017
From the text: Sarcomatoid renal carcinoma was defined as any histologic type of renal cell carcinoma containing a focus/foci of high-grade malignant spindle cells of any component relative to the entire tumor area. Such a classification required evidence of epithelial differentiation with concurrent areas of renal cell carcinoma or evidence of epithelial differentiation in the spindle cells with immunohistochemical positivity for keratin or epithelial membrane antigen (EMA). Frequent patterns include fibrosarcoma, malignant fibrous histiocytoma, and rhabdomyosarcoma. Focal spindling due to noncohesion of tumor cells was not considered to represent sarcomatoid differentiation. Any spindle component relative to the entire tumor area was sufficient. The degree of sarcomatoid differentiation was recorded as 1) any component, 2) >20% component, or 3) predominant sarcomatoid component.
(§1) IMmotion151 is a multicenter, randomized, open-label, Phase III study evaluating the efficacy and safety of atezolizumab+bevacizumab vs those of sunitinib in patients with previously untreated, inoperable, locally advanced or metastatic RCC (FIG. 1). The co-primary endpoints were (i) investigator (INV)-assessed progression-free survival (PFS) in patients with ≥1% IC expressing PD-L1 (PD-L1+) and (ii) interim overall survival (OS) in the intent-to-treat (ITT) population. Secondary endpoints inclue INV-assessed PFS and OS in patients with sarcomatoid histology and are reported here with INV-assessed objective response rate (ORR), safety, patient-reported outcomes (PROs) of symptoms and function and biomarker evaluation.
Patients were included in this subgroup analysis if their tumor had any component of sarcomatoid histology, referred to in this presentation as “All Sarc,” as reported by the investigator per the local pathology report. P values are for descriptive purposes only. Gene expression analyses of baseline tumor samples were performed as previously described and focused on T-effector and angiogenesis signatures (see, e.g., McDermott et al. Nat. Med. 24:749-757, 2018). The clinical cutoff for PFS, ORR, PRO and safety was Sep. 29, 2017, with a median follow-up of 13 months. The clinical cutoff for OS was Aug. 13, 2018, with a median follow-up of 17 months.

[2] = test system: safety-evaluable patients with locally advanced or metastatic RCC; assay: IMmotion151 safety (adverse events, AESI); format: in vivo; conditions: for Patients with ≥ 1 event: Adrenal insufficiency, All Grades / Patients with ≥ 1 event: Adrenal insufficiency, Grade 3-4 / Patients with ≥ 1 event: Colitis, All Grades / Patients with ≥ 1 event: Colitis, Grade 3-4 / Patients with ≥ 1 event: Hyperthyroidism, All Grades / Patients with ≥ 1 event: Hyperthyroidism, Grade 3-4 / Patients with ≥ 1 event: Hypothyroidism, All Grades / Patients with ≥ 1 event: Hypothyroidism, Grade 3-4 / Patients with ≥ 1 event: Liver function test abnormalities, All Grades / Patients with ≥ 1 event: Liver function test abnormalities, Grade 3-4 / Patients with ≥ 1 event: Pneumonitis, All Grades / Patients with ≥ 1 event: Pneumonitis, Grade 3-4 / Patients with ≥ 1 event: Rash, All Grades / Patients with ≥ 1 event: Rash, Grade 3-4: AESI; for Patients with ≥ 1 event: Any AESI, All Grades / Patients with ≥ 1 event: Any AESI, Grade 3-4: all treatment-emergent AEs
Method: Patients in the Atezolizumab+Bevacizumab (“Atezo+Bev”) arm received both atezolizumab and bevacizumab until loss of clinical benefit, unacceptable toxicity or symptomatic deterioration attributed to disease progression, withdrawal of consent, or death, whichever occured first. Atezolizumab was administered at a fixed dose of 1200 milligrams (mg) via intravenous (IV) infusion on Days 1 and 22 of each 42-day cycle. Bevacizumab was be administered at a dose of 15 milligrams per kilogram (mg/kg) via IV infusion on Days 1 and 22 of each 42-day cycle. Patients in the sunitinib arm received sunitinib until loss of clinical benefit, unacceptable toxicity or symptomatic deterioration attributed to disease progression, withdrawal of consent, or death, whichever occured first. Sunitinib was administered at a dose of 50 mg once daily, orally via capsule, on Day 1 through Day 28 of each 42-day cycle.
as §1
Patients were included in this subgroup analysis if their tumor had any component of sarcomatoid histology, referred to in this presentation as “All Sarc,” as reported by the investigator per the local pathology report. P values are for descriptive purposes only. […] The clinical cutoff for PFS, ORR, PRO and safety was Sep. […] The clinical cutoff for OS was Aug.

[3] = test system: patients with inoperable, locally advanced, or metastatic RCC; conditions: Rini et al. Lancet 2019, cited from earlier work; for Median OS: clinical cutoff Aug. 13, 2018; for Confirmed INV-assessed ORR / Median INV-assessed PFS: clinical cutoff Sep. 29, 2017
[4] = patients with >20% sarcomatoid component

## CCN(CC)CCNC(=O)c1c(C)[nH]c(/C=C2\C(=O)Nc3ccc(F)cc32)c1C [Sunitinib, N-[2-(Diethylamino)ethyl]-5-[(Z)-(5-fluoro-2-oxo-1,2-dihydro-3H-indol-3-ylidene)methyl]-2,4-dimethyl-1H-pyrrole-3-carboxamide]
[1]; All Sarc
  CR: 3%
  Ongoing responses: 3 n
  Median OS: 15.4 mo
  Confirmed INV-assessed ORR: 14%
  Median INV-assessed PFS: 5.3 mo
[1]; PD-Li + Sarc
  CR: 4%
  Ongoing responses: 0 n
  Median OS: 15.0 mo
  Confirmed INV-assessed ORR: 12%
  Median INV-assessed PFS: 5.6 mo
[1]; [4]
  CR rate: 0%
  ORR: 4%
[1]; patients with sarcomatoid differentiation (Example 1)
  overall response rate (ORR): 18%
[2]; All Safety Evaluable
  Treatment-related AEs: 96%
  Treatment-related AEs leading to discontinuation of any treatment component: 8%
  Treatment-related AEs leading to discontinuation of treatment regimen: 8%
  Treatment-related AEs, Grade 3-4: 54%
  Treatment-related deaths: 1^e n
  Patients with ≥ 1 event: Adrenal insufficiency, All Grades: 0%
  Patients with ≥ 1 event: Adrenal insufficiency, Grade 3-4: 0%
  Patients with ≥ 1 event: Colitis, All Grades: <1%
  Patients with ≥ 1 event: Colitis, Grade 3-4: <1%
  Patients with ≥ 1 event: Hyperthyroidism, All Grades: 3%
  Patients with ≥ 1 event: Hyperthyroidism, Grade 3-4: 0%
  Patients with ≥ 1 event: Hypothyroidism, All Grades: 26%
  Patients with ≥ 1 event: Hypothyroidism, Grade 3-4: <1%
  Patients with ≥ 1 event: Liver function test abnormalities, All Grades: 18%
  Patients with ≥ 1 event: Liver function test abnormalities, Grade 3-4: 4%
  Patients with ≥ 1 event: Pneumonitis, All Grades: 0%
  Patients with ≥ 1 event: Pneumonitis, Grade 3-4: 0%
  Patients with ≥ 1 event: Rash, All Grades: 15%
  Patients with ≥ 1 event: Rash, Grade 3-4: <1%
  Patients with ≥ 1 event: Any AESI, All Grades: 72%
  Patients with ≥ 1 event: Any AESI, Grade 3-4: 17%
[2]; Sarc Safety Evaluable
  Treatment-related AEs: 94%
  Treatment-related AEs leading to discontinuation of any treatment component: 3%
  Treatment-related AEs leading to discontinuation of treatment regimen: 3%
  Treatment-related AEs, Grade 3-4: 49%
  Treatment-related deaths: 0 n
  Patients with ≥ 1 event: Adrenal insufficiency, All Grades: 0%
  Patients with ≥ 1 event: Adrenal insufficiency, Grade 3-4: 0%
  Patients with ≥ 1 event: Colitis, All Grades: 1%
  Patients with ≥ 1 event: Colitis, Grade 3-4: 0%
  Patients with ≥ 1 event: Hyperthyroidism, All Grades: 1%
  Patients with ≥ 1 event: Hyperthyroidism, Grade 3-4: 0%
  Patients with ≥ 1 event: Hypothyroidism, All Grades: 16%
  Patients with ≥ 1 event: Hypothyroidism, Grade 3-4: 0%
  Patients with ≥ 1 event: Liver function test abnormalities, All Grades: 10%
  Patients with ≥ 1 event: Liver function test abnormalities, Grade 3-4: 3%
  Patients with ≥ 1 event: Pneumonitis, All Grades: 0%
  Patients with ≥ 1 event: Pneumonitis, Grade 3-4: 0%
  Patients with ≥ 1 event: Rash, All Grades: 14%
  Patients with ≥ 1 event: Rash, Grade 3-4: 0%
  Patients with ≥ 1 event: Any AESI, All Grades: 66%
  Patients with ≥ 1 event: Any AESI, Grade 3-4: 11%
[3]; ITT
  CR: 2%
  Ongoing responses: 90 n
  Median OS: 34.9 mo
  Confirmed INV-assessed ORR: 33%
  Median INV-assessed PFS: 8.4 mo
[3]; PD-L1 + ITT
  CR: 4%
  Ongoing responses: 34 n
  Median OS: 32.7 mo
  Confirmed INV-assessed ORR: 35%
  Median INV-assessed PFS: 7.7 mo
